Data set [1] in a line: pH assessment and visual compatibility of first biocide with AMA-324 in polymer solution. Type of data set: physicochemical. Particulars: for pH end: AMA-324 plus first biocide mixed 30 minutes, AMA-324 alone stirred 40 minutes; for pH after addition of first biocide: polymer solution with AMA-324 100 ppm plus first biocide 100 ppm (active), DBNPA 50 ppm; for Observations on adjusted pH solution: polymer solution with AMA-324 plus first biocide, after pH adjustment, visual appearance. As to the method:
Seven standard polymer solutions were prepared by preparing a commercially-available polyacrylamide polymer using standard methods. The polymer was added to artificial seawater formulation (approximately 27° C., with the pH adjusted to 6.5 and buffered accordingly) and the solution was mixed utilizing a magnetic stirrer to obtain 200 mL of a 300 ppm (active) polymer solution. After mixing, the initial pH of each polymer solution was measured and recorded. The pH was measured using a calibrated bench top pH meter.
After the initial pH reading, 1 mL of the AMA-324 stock solution was added to 200 mL of the polymer solution to provide 100 ppm (active) of the biocide, and mixed for 10 minutes. The pH of the solution with the AMA-324 was then measured and recorded.
Following pH measurement of the polymer solutions containing AMA-324, 1 mL of a first biocide component stock solution (as described in Table 1) was added to each polymer mixture. The concentration of the biocide stock solutions were prepared to provide 100 ppm (active) in the polymer solution, except for DBNPA which was evaluated at 50 ppm (active). The polymer solutions with the AMA-324 and the first biocide components were mixed for 30 minutes, after which the pH was again measured.
Finally, one control experiment was performed with only the addition of AMA-324 to the polymer solution, stirred for 40 minutes with no other biocide addition.

The test system of another data set is SRB. In words: Planktonic biocide efficacy, MPN enumeration, SRB. The note with it: FIG. 8 versus FIG. 14. Type of data set: cell-based.

This is an account of results in patent US20140303045A1, “Biocidal Systems and Methods of Use” (Kemira Oyj, priority 2013, published 2014).

Entries after “also recorded” stand apart in the source; their conditions may differ.

For the molecule `N#CC(Br)(Br)C(N)=O` [DBNPA, 2,2-dibromo-3-nitrilopropionamide], in data set [1], the pH end amounted to 8.44, the “pH after addition of first biocide” value came out at 8.04 and the “Observations on adjusted pH solution” value is reported as “some turbidity; also recorded: cloudy”.
Turning to `O=CCCCC=O` [GLUT, Glutaraldehyde], in data set [1], the pH end worked out at 9.12, the “pH after addition of first biocide” value is on record as 9.29 and the “Observations on adjusted pH solution” value is “clear”. In addition, the “Synergistic effect of dual biocide system with AMA-324” value with SRB is “synergistic effect”.
With “C12-16-alkyl dimethyl benzyl ammonium chloride [ADBAC quat]”, in data set [1], the pH end is recorded as 9.18, the “pH after addition of first biocide” value came out at 9.57 and the “Observations on adjusted pH solution” value is “cloudy”. In addition, the “Observations on adjusted pH solution” value in data set [1] (listed as ADBAC Quat) is listed as “some turbidity”.
As for “tetrakis(hydroxymethyl) phosphonium sulfate [THPS]”, in data set [1], the pH end was found to be 7.13, the “pH after addition of first biocide” value was 6.8 and the “Observations on adjusted pH solution” value is “clear”. For the same molecule, the “Synergistic effect of dual biocide system with AMA-324” value in the data set on SRB is on record as “synergistic effect”.
